Source: PubChem BioAssay (NCI)
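Growth conditions: 96-well plates. Treatment: test compound, 48 hours, 5 concentrations. Analysis: linear interpolation between bracketing concentrations; unreached endpoints set to highest concentration. GI50 marks 50% less growth. TGI is the concentration that stops growth completely.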

What was measured:
Test in all cases: growth of human tumour cells (NCI), 48 h
[1] = system: CAKI-1 renal
[2] = system: RXF 393 renal
[3] = system: K-562 leukemia
[4] = system: NCI-H522 lung
[5] = system: ACHN renal
[6] = system: SW-620 colon
[7] = system: SF-539 CNS
[8] = system: NCI-H226 lung
[9] = system: UACC-257 melanoma
[10] = system: U251 CNS

CCOC1C=CCCO1 (stereo not drawn)
TGI [1]: > 100 µM | TGI [2]: > 100 µM | TGI [3]: > 100 µM | TGI [4]: > 100 µM | TGI [5]: > 100 µM | TGI [6]: > 100 µM | TGI [7]: > 100 µM | TGI [8]: > 100 µM | TGI [9]: > 100 µM

CC1=C(C(=O)Nc2ccc(F)c(Cl)c2)C(c2cccc(Oc3ccccc3)c2)NC(=O)N1 (stereo not drawn)
GI50 [1]: 18.6 µM | TGI [1]: 38.8 µM | GI50 [2]: 14.4 µM | TGI [2]: 32.1 µM | GI50 [4]: 14.9 µM | TGI [4]: 29.4 µM | GI50 [5]: 15.1 µM | TGI [5]: 28.4 µM | GI50 [6]: 18.2 µM | TGI [6]: 38.2 µM | GI50 [7]: 14.6 µM | TGI [7]: 28.3 µM | GI50 [10]: 13.4 µM | TGI [10]: 26.2 µM | GI50 [8]: 16.2 µM | TGI [8]: 37.4 µM | GI50 [9]: 18 µM | TGI [9]: 34.9 µM

COc1cc([N+](=O)[O-])c(OC)cc1-c1nc2sc(Cl)cn2c1/C=N/NC(=N)N/N=C/c1c(-c2cc(OC)c([N+](=O)[O-])cc2OC)nc2sc(Cl)cn12
GI50 [1]: 4.33 µM | TGI [1]: 23.8 µM | GI50 [5]: 2.23 µM | TGI [5]: 4.88 µM | GI50 [6]: 1.85 µM | TGI [6]: 3.55 µM | GI50 [7]: 0.387 µM | TGI [7]: 1.8 µM

O=C(NCP(=O)(O)O)c1cccnc1
TGI [1]: > 100 µM | TGI [2]: > 100 µM | TGI [3]: > 100 µM | TGI [5]: > 100 µM | TGI [6]: > 100 µM | TGI [7]: > 100 µM | TGI [10]: > 100 µM | TGI [8]: > 100 µM | TGI [9]: > 100 µM

CN(C)c1ccc(O)c2c1C[C@H]1C[C@H]3[C@H](N(C)C)C(=O)C(C(N)=O)=C(O)[C@@]3(O)C(=O)C1=C2O
GI50 [1]: 2.16 µM | TGI [1]: 20.9 µM | GI50 [2]: 4.01 µM | TGI [2]: 69.7 µM | GI50 [5]: 4.09 µM | TGI [5]: > 100 µM | GI50 [6]: 5.84 µM | TGI [6]: > 100 µM | GI50 [7]: 3.88 µM | TGI [7]: 15.5 µM | GI50 [10]: 4.5 µM | TGI [10]: 57.1 µM | GI50 [8]: 8.58 µM | TGI [8]: 84.5 µM | GI50 [9]: 8.99 µM | TGI [9]: > 100 µM

N#CC(C#N)=C1SCC(=O)CS1
TGI [1]: > 100 µM | TGI [2]: > 100 µM | TGI [3]: > 100 µM | TGI [4]: > 100 µM | TGI [6]: > 100 µM | TGI [7]: > 100 µM | TGI [10]: > 100 µM | TGI [8]: > 100 µM | TGI [9]: > 100 µM

C/C(=N\O)C(CN1CCCCC1)C(c1ccccc1)c1c(O)c2ccccc2oc1=O (stereo not drawn)
TGI [1]: > 100 µM | TGI [2]: > 100 µM | TGI [3]: > 10 µM | TGI [4]: > 100 µM | TGI [5]: > 100 µM | TGI [6]: > 100 µM | TGI [7]: > 100 µM | TGI [8]: > 100 µM | TGI [9]: > 100 µM

Cc1cccc2c1C/C(=C1\CCc3c(C)cccc31)C2=O
TGI [1]: > 100 µM | TGI [2]: > 100 µM | TGI [3]: > 100 µM | TGI [5]: > 100 µM | TGI [6]: > 100 µM | TGI [10]: > 100 µM | TGI [8]: > 100 µM | TGI [9]: > 100 µM

COc1cc(C(=O)CC2(O)C(=O)Nc3c(Cl)cc(Cl)cc32)ccc1O (stereo not drawn)
TGI [1]: > 100 µM | TGI [2]: > 100 µM | TGI [3]: > 100 µM | TGI [4]: > 100 µM | TGI [5]: > 100 µM | TGI [6]: > 100 µM | TGI [10]: > 100 µM | TGI [8]: > 100 µM | TGI [9]: > 100 µM

CC1SC(=O)SC1C (stereo not drawn)
TGI [3]: > 100 µM | TGI [4]: > 100 µM | TGI [5]: > 100 µM | TGI [6]: > 100 µM | TGI [7]: > 100 µM | TGI [10]: > 100 µM | TGI [9]: > 100 µM

O=C(/C=C1/NC(=O)CS1)Nc1ccccc1
TGI [1]: > 100 µM | TGI [2]: > 100 µM | TGI [3]: > 100 µM | TGI [4]: > 100 µM | TGI [6]: > 100 µM | TGI [7]: > 100 µM | TGI [10]: > 100 µM | TGI [8]: > 100 µM

CC(=O)c1c[nH]cc1CO
TGI [1]: > 10 µM | TGI [2]: > 10 µM | TGI [3]: > 10 µM | TGI [5]: > 10 µM | TGI [6]: > 10 µM | TGI [7]: > 10 µM | TGI [10]: > 10 µM | TGI [8]: > 10 µM

COc1cc(-c2oc3c(OC)c(O)c(OC)c(O)c3c(=O)c2OC)ccc1O
TGI [1]: 90.1 µM | TGI [3]: > 100 µM | TGI [4]: 66.9 µM | TGI [5]: > 100 µM | TGI [6]: > 100 µM | TGI [7]: > 100 µM | TGI [10]: > 100 µM | TGI [8]: > 100 µM | TGI [9]: > 100 µM

Cc1cccc2c1C(=O)OC2(C)c1cccc2ccccc12 (stereo not drawn)
TGI [1]: > 100 µM | TGI [2]: 84.6 µM | TGI [3]: > 100 µM | TGI [4]: 40.4 µM | TGI [5]: > 100 µM | TGI [6]: > 100 µM | TGI [10]: 73.8 µM | TGI [8]: 57.2 µM | TGI [9]: > 100 µM

NC(CCSC(F)F)C(=O)O (stereo not drawn)
TGI [1]: > 100 µM | TGI [2]: > 100 µM | TGI [3]: > 100 µM | TGI [4]: > 100 µM | TGI [5]: > 100 µM | TGI [6]: > 100 µM | TGI [7]: > 100 µM | TGI [10]: > 100 µM | TGI [8]: > 100 µM

C[C@@H]1C[C@@]2(O[C@@H]2C)C(=O)O[C@@H]2CCN3CC=C(COC(=O)[C@]1(C)O)[C@H]23
TGI [1]: > 100 µM | TGI [3]: > 100 µM | TGI [4]: > 100 µM | TGI [5]: > 100 µM | TGI [6]: > 100 µM | TGI [7]: > 100 µM | TGI [10]: > 100 µM | TGI [8]: > 100 µM | TGI [9]: > 100 µM

COc1ccc2c(c1)CC1c3c(cc4c(c3-2)OCO4)CCN1C (stereo not drawn)
TGI [1]: 60.2 µM | TGI [3]: > 100 µM | TGI [4]: 38.7 µM | TGI [5]: 36.1 µM | TGI [6]: 59.8 µM | TGI [7]: > 100 µM | TGI [10]: > 100 µM | TGI [8]: 64.9 µM | TGI [9]: 57.5 µM

Cc1cc(C)c(NS(=O)c2cccc(Cl)c2)c(C)c1 (stereo not drawn)
TGI [2]: > 100 µM | TGI [3]: > 100 µM | TGI [5]: > 100 µM | TGI [6]: > 100 µM | TGI [7]: > 100 µM | TGI [10]: > 100 µM | TGI [8]: > 100 µM | TGI [9]: > 100 µM

COc1cc([C@@H]2OC(=O)C3C2C(=O)O[C@H]3c2cc(OC)c(OC)c(OC)c2)cc(OC)c1OC (stereo partly drawn)
TGI [2]: > 100 µM | TGI [3]: > 100 µM | TGI [4]: > 100 µM | TGI [5]: > 100 µM | TGI [6]: > 100 µM | TGI [7]: > 100 µM | TGI [10]: > 100 µM | TGI [8]: > 100 µM | TGI [9]: > 100 µM

CC1/C(=N/Nc2ccc([N+](=O)[O-])cc2)CC2C3(C)CCC2(C(C)C(=O)O)C(=O)C13 (stereo not drawn)
GI50 [1]: 5.95 µM | TGI [1]: > 100 µM | GI50 [2]: 3.18 µM | TGI [2]: > 100 µM | GI50 [4]: 4.48 µM | TGI [4]: > 100 µM | GI50 [5]: 6.33 µM | TGI [5]: > 100 µM | GI50 [6]: 49.4 µM | TGI [6]: > 100 µM | GI50 [7]: 5.44 µM | TGI [7]: > 100 µM | GI50 [10]: 30.2 µM | TGI [10]: > 100 µM | GI50 [9]: > 100 µM | TGI [9]: > 100 µM

Cc1ccc(N2C(=O)/C(=C/c3ccc(N(CCC#N)CCC#N)cc3C)N=C2c2cc([N+](=O)[O-])ccc2Cl)cc1
TGI [1]: > 100 µM | TGI [3]: > 100 µM | TGI [4]: > 100 µM | TGI [5]: > 100 µM | TGI [6]: > 100 µM | TGI [7]: > 100 µM | TGI [10]: > 100 µM | TGI [8]: > 100 µM | TGI [9]: > 100 µM

Cc1ccc(S(=O)(=O)c2c3[nH]c4ccccc4nc3n3c2nc2ccccc23)cc1
TGI [1]: > 100 µM | TGI [3]: > 100 µM | TGI [4]: > 100 µM | TGI [5]: > 100 µM | TGI [6]: > 100 µM | TGI [7]: > 100 µM | TGI [10]: > 100 µM | TGI [9]: > 100 µM
